These are literature values, as cited in publication PMC9175271, “Live-cell microscopy or fluorescence anisotropy with budded baculoviruses—which way to go with measuring ligand binding to M4 muscarinic receptors?” (Open Biology, 2022).

The target of this data set is M4 receptor. To be noted: mean of literature values, per ligand as in column ref.; ref [50], [63], [74]–[89].

With `CN1[C@@H]2C[C@@H](OC(=O)[C@H](CO)c3ccccc3)C[C@H]1[C@@H]1O[C@@H]12` [scopolamine], the “pKi ± s.e.m. (radioligand)” value is given as 9.28 ± 0.19.
